Laboratory results published in ChEMBL document CHEMBL3045560, “Insecticide interactions with -aminobutyric acid and nicotinic receptors: predictive aspects of structural models” (J Pestic Sci, 2008).

Tests used:
[1] = Inhibition of recombinant Homo sapiens (human) GABA receptor
Musca domestica = assay: Insecticidal activity against topically-treated Musca domestica (house fly); format: ADME, organism-based; settings: topical
[2] = target: T1, GABA-A receptor; alpha-1/beta-3/gamma-2 (Homo sapiens, UniProt P14867+P18507+P28472); assay: Displacement of [3H]EBOB from recombinant Homo sapiens (human) GABA alpha1beta3gamma2 receptor; format: protein-complex assay
T1 sequence (P14867 whole entry): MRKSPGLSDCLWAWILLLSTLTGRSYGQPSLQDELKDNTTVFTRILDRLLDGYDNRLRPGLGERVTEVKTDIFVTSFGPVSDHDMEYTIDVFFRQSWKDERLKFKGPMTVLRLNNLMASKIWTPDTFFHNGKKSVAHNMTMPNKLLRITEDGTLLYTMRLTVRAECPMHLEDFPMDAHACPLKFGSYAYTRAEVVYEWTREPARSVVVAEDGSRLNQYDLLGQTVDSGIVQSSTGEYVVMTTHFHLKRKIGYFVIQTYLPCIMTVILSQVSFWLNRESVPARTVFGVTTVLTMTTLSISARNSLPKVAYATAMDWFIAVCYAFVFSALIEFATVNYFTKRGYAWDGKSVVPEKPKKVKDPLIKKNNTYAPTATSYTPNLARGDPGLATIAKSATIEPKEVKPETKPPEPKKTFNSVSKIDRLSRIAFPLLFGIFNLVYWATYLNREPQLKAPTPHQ
T1 sequence (P18507 whole entry): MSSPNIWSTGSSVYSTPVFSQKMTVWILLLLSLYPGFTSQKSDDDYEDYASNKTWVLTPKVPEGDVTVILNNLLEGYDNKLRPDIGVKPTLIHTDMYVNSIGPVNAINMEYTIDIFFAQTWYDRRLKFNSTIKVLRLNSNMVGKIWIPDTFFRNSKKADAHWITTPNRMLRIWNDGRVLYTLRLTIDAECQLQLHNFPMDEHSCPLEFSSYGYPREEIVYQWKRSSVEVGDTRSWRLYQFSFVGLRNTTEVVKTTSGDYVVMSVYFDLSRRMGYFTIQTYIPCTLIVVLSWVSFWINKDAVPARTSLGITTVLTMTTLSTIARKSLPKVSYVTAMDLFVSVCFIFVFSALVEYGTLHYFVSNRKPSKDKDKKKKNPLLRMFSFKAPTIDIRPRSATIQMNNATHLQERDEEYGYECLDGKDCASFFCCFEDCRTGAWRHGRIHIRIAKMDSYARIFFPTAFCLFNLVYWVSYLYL
T1 sequence (P28472 whole entry): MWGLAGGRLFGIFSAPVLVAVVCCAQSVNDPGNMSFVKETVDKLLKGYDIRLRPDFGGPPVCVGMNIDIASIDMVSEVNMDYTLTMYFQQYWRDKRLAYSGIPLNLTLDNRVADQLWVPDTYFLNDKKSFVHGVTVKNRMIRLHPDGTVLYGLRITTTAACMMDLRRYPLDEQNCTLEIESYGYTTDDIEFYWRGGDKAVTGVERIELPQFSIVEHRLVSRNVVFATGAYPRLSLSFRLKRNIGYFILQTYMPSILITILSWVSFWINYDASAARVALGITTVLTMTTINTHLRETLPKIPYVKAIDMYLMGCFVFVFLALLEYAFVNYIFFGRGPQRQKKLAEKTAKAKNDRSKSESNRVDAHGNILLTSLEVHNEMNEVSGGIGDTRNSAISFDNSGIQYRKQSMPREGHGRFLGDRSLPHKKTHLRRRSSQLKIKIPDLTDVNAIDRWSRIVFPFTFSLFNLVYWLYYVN

[3] = Toxicity in ip dosed Mus musculus (mouse); format: organism-based; settings: in vivo
[4] = target: Gamma-aminobutyric acid receptor subunit alpha-6/beta-3 (Homo sapiens, UniProt P28472+Q16445); assay: Displacement of [3H]EBOB from recombinant Homo sapiens (human) GABA alpha6beta3 receptor; format: protein-complex assay
Gamma-aminobutyric acid receptor subunit alpha-6/beta-3, sequence (Q16445 whole entry, one chain of several): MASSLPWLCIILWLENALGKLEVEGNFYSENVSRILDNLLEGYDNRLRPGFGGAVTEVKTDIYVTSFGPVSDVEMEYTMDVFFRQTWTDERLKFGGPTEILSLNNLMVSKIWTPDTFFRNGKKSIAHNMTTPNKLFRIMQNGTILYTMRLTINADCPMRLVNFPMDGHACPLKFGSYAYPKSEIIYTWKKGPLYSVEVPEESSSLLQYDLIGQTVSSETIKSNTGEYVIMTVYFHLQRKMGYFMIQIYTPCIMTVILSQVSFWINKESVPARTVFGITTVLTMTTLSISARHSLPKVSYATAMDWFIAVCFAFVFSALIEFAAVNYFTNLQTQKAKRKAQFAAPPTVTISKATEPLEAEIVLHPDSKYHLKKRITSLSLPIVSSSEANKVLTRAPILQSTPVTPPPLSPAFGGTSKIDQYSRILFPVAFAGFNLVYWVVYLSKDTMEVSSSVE

[5] = target: T2, Gamma-aminobutyric acid receptor subunit alpha-1/ beta-1 (Homo sapiens, UniProt P14867+P18505); assay: Displacement of [3H]EBOB from recombinant Homo sapiens (human) GABA alpha1beta1 receptor; format: protein-complex assay
T2 sequence (P14867 whole entry): T1 sequence (P14867 whole entry)
T2 sequence (P18505 whole entry): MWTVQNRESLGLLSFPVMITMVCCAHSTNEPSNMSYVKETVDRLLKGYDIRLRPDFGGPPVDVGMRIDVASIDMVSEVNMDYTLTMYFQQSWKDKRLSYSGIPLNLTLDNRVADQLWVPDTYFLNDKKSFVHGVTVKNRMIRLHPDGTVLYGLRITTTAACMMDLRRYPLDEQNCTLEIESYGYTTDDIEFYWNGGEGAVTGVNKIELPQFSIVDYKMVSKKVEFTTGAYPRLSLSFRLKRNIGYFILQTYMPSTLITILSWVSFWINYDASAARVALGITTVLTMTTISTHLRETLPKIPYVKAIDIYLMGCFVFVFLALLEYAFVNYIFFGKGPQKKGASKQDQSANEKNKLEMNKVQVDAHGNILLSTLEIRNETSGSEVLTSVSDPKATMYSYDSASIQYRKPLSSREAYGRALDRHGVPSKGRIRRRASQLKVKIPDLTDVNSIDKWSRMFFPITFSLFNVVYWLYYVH

GABA receptor subunit = target: T3, GABA receptor subunit (Musca domestica, UniProt Q75NA5); assay: Inhibition of Musca domestica (house fly) GABA receptor
T3 sequence (Q75NA5 whole entry): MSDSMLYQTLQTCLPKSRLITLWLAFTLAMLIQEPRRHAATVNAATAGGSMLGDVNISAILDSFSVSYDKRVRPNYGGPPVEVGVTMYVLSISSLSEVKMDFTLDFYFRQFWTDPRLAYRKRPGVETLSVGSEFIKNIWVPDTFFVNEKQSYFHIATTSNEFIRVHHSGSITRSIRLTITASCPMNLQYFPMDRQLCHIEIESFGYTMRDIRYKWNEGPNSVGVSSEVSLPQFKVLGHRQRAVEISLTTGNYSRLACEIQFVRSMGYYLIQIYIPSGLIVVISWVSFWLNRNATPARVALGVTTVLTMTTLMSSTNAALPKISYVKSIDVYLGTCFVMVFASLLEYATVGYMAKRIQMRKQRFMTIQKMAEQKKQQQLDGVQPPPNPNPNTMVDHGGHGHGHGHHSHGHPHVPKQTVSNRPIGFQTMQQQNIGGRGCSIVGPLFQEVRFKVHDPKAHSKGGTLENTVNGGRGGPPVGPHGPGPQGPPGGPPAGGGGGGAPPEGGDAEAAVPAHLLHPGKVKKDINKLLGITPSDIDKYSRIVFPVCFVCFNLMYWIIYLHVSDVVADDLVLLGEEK

[6] = target: T4, Gamma-aminobutyric acid receptor subunit beta-3 (Homo sapiens, UniProt P28472); assay: Displacement of [3H]EBOB from recombinant Homo sapiens (human) GABA beta3 receptor
T4 sequence (P28472 whole entry): T1 sequence (P28472 whole entry)

[7] = target: T5, GABA A receptor alpha-1/beta-1/gamma-2 (Homo sapiens, UniProt P14867+P18505+P18507); assay: Displacement of [3H]EBOB from recombinant Homo sapiens (human) GABA alpha1beta1gamma2 receptor; format: protein-complex assay
T5 sequence (P14867 whole entry): T1 sequence (P14867 whole entry)
T5 sequence (P18507 whole entry): T1 sequence (P18507 whole entry)
T5 sequence (P18505 whole entry): T2 sequence (P18505 whole entry)

[8] = target: GABA-A receptor; alpha-6/beta-3/gamma-2 (Homo sapiens, UniProt P18507+P28472+Q16445); assay: Displacement of [3H]EBOB from recombinant Homo sapiens (human) GABA alpha6beta3gamma2 receptor; format: protein-complex assay
GABA-A receptor; alpha-6/beta-3/gamma-2, sequence (Q16445 whole entry, one chain of several): as the sequence (Q16445 whole entry, one chain of several) above

[9] = target: Gamma-aminobutyric acid receptor subunit rho-1 (Homo sapiens, UniProt P24046); assay: Displacement of [3H]EBOB from recombinant Homo sapiens (human) GABA rho1 receptor
Gamma-aminobutyric acid receptor subunit rho-1, sequence (P24046 whole entry): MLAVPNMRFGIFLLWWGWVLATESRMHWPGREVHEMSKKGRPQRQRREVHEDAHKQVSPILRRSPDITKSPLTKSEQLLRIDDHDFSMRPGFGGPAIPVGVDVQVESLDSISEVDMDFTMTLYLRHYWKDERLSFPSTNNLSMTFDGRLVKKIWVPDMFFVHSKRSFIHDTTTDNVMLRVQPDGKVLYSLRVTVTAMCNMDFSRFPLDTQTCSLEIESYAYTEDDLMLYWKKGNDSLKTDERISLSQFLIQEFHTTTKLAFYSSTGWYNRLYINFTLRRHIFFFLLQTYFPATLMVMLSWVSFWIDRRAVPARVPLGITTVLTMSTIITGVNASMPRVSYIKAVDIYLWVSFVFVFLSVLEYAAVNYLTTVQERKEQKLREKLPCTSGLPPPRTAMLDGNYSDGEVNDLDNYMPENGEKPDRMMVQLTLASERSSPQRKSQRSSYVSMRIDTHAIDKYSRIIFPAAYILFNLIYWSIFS

[10] = Selectivity ratio of IC50 for recombinant human GABA receptor to IC50 for housefly GABA receptor
[11] = target: T6, GABA-A receptor alpha-1/beta-3 (Homo sapiens, UniProt P14867+P28472); assay: Displacement of [3H]EBOB from recombinant Homo sapiens (human) GABA alpha1beta3 receptor
T6 sequence (P14867 whole entry): T1 sequence (P14867 whole entry)
T6 sequence (P28472 whole entry): T1 sequence (P28472 whole entry)

SMILES | IC50 [1] | LD50 (Musca domestica) | IC50 [2] | LD50 [3] | IC50 [4] | IC50 [5] | IC50 (GABA receptor subunit) | IC50 [6] | IC50 [7] | IC50 [8] | IC50 [9] | Ratio IC50 [10] | IC50 [11]
Cl[C@H]1[C@H](Cl)[C@@H](Cl)[C@@H](Cl)[C@H](Cl)[C@H]1Cl [LINDANE] | 306 nM | 5.5 mg/kg | 21 nM | 40 mg/kg | 1.3 nM | 112 nM | 11 nM | 0.9 nM | 67 nM | 4.9 nM | 91 nM | 28 | 12 nM
O=S1OC[C@@H]2[C@H](CO1)[C@@]1(Cl)C(Cl)=C(Cl)[C@]2(Cl)C1(Cl)Cl (stereo partly drawn) [ALPHA-ENDOSULFAN] | 7.3 nM | 5.5 mg/kg | 16 nM | 10 mg/kg | 4 nM | 117 nM | 10 nM | 0.47 nM | 40 nM | 4.6 nM | 800 nM | 0.73 | 8.3 nM
N#Cc1nn(-c2c(Cl)cc(C(F)(F)F)cc2Cl)c(N)c1[S+]([O-])C(F)(F)F (stereo not given) [FIPRONIL] | 2500 nM | 0.25 mg/kg | 33 nM | 32 mg/kg | 3.1 nM | 7700 nM | 2.3 nM | 2.4 nM | 2800 nM | 17 nM | > 10000 nM | 1090 | 28 nM
C#Cc1ccc(C23OCC(CCC)(CO2)CO3)cc1 |  |  |  |  |  |  |  |  |  |  |  | 5 | 
